The test system of one assay is Jurkat. Briefly: MTT screening assay, Jurkat. It is filed as cell-based. The following applies: Homo sapiens, 72 h incubation. The source says: The ability of newly synthesized indole phytoalexins to suppress cell proliferation was screened in vitro on eight cancer cell lines including human colorectal carcinoma (Caco-2 and HCT116), human cervical cancer (HeLa), human breast adenocarcinoma (MCF-7, MDA-MB-231), human alveolar adenocarcinoma (A549) and human leukemic T cell lymphoma (Jurkat), and two non-cancer cell lines (MCF-10A, Cos-7).
The cell lines used for this study were Caco-2 (human colorectal adenocarcinoma cell line, American Type Culture Collection, Manassas, VA, USA (ATCC)), HCT116 (human colorectal carcinoma cells European Collection of Authenticated Cell Cultures, Salisbury, UK (ECACC)), HeLa (human cervical tumor cells, ECACC), MCF-7 (human breast tumor cells, ECACC), MDA-MB-231 (human breast tumor cells, ATCC), A549 (human lung carcinoma cells, ATCC), BLM (human melanoma lung metastases, a gift from prof. K. Smetana, Institute of Anatomy, Charles University in Prague), Jurkat (human leukemia cell line, ECACC), Cos-7 (immortalized monkey kidney fibroblasts, ATCC) and MCF-10A (human mammary epithelial cells, ATCC). Caco-2, MCF-7, BLM, Cos-7 and A549 cells were cultured in Dulbecco’s Modified Eagle’s Medium (DMEM) with high glucose and sodium pyruvate (GE Healthcare, Piscataway, NJ, USA); HCT116 lines, HeLa, MDA-MB-231 and Jurkat were cultured in RPMI-1640 medium; and MCF10A cells were cultured in high glucose DMEM/F12 (Dulbecco’s Modified Eagle’s Medium F12). The media were enriched with 10% fetal bovine serum (FBS) and a 1% solution of a mixture of antibiotics and antimycotics 1× HyClone™ (GE Healthcare, Chicago, IL, USA). DMEM/F12 medium was supplemented with epidermal growth factor (EGF) (20 ng/mL final), hydrocortisone (0.5 μg/mL final) and insulin (10 μg/mL final) (Sigma-Aldrich Chemie, Steinheim, Germany). The cells were placed in an incubator at 37 °C with humidified air containing 5% CO2.
The MTT assay is a colorimetric method used to quantify the metabolic activity of cells. MTT (3-(4,5-di-methylthiazol-2-yl)2,5-diphenyltetrazolium bromide) (Sigma-Aldrich Chemie, Steinheim, Germany) is reduced by oxidoreductases in the cytosol of cells to light-absorbing formazan, the presence of which can be measured spectrophotometrically and determines the half-maximal inhibitory concentration (IC50). A549 cells were seeded in […] culture plates at a density of 5 × 10^3 per well. […]
We also incubated the cells with chloroquine at concentrations of 5–20 µM, which was added 1 h before the addition of the test substance, and cisplatin at concentrations of 3–10 µM. […] After 24 h, the absorbance was measured at a wavelength of 540 nm using an automated Cytation™ 3 Cell Imaging Multi-Mode Reader (Biotek, Winooski, VT, USA). […]

A further assay has as its system Atg7. The assay can be described thus: Western blot, Atg7. The settings on record: A549, 24, 48, 72 h. In kind it is cell-based, human. The source says:
Atg7 belongs to the family of Atg (autophagy-related) proteins involved in the process of autophagy. A ubiquitin-like conjugation system is required for autophagosome formation. The Atg7 protein is an E1-like activating enzyme that ensures the conjugation reaction and is essential for successful conversion of cytosolic LC3-I to its conjugated form, LC3-II.. […] Similar results were reported earlier. Hseu et al. studied the effect of a natural chalcone, flavokawain B, on A549 lung cancer cells. […] Moreover, in curcumin-induced autophagy, up-regulation of beclin-1 has also been observed.
A549 cells were seeded on Petri dishes (55 cm^2) at a density of 1 × 10^6 and allowed to culture in the medium. After 24 h, the test substance was added, and the cells were incubated for 24, 48 and 72 h. Subsequently, the cells were lysed with ice-cold Laemli buffer solution containing glycerol, 1M Tris/HCl (pH 6.8), 20% sodium dodecyl sulphate (SDS), deionized water and mixtures of phosphatase and protease inhibitors. After lysis, the cells were sonicated, and the protein concentration in the samples was quantified using the Pierce® BCA Protein Assay Kit (Thermo Scientific, Rockford, IL, USA) and measured by an automated Cytation™ 3 Cell Imaging Multi-Mode Reader (Biotek) at a wavelength of 570 nm. […]

In assay [1] the test system is superoxide dismutase (SOD). Briefly: SOD activity in treated A549 cells. The settings on record: A549, 20 µM. It is filed as cell-based, human. An excerpt:
Glutathione is an important intracellular molecule involved in carcinogen detoxification. On the other hand, its elevated state in cancer cells is often associated with resistance to chemotherapy. […] Because high levels of GSH are associated with cancer cell resistance, the GHS-depleting effect of compound 49 could be interesting due to new cancer chemosensitizer development. In the case of GST and GR, we hypothesize that an increase in the activity of both enzymes may be a compensatory mechanism induced by GSH depletion.
Both floating and adherent A549 cells were harvested at 24, 48, and 72 h after treatment with compound 49 (20 µM). SOD determination kit, Glutathione Peroxidase Cellular Activity Assay kit, Glutathione Reductase Assay Kit and Glutathione-S-transferase (GST) Assay Kit (all Sigma Aldrich, Germany) were used for the detection of relevant enzyme activity. Reduced glutathione (GSH) content was measured by the method originally described by Floreani et al.. Assays were performed on an M 501 single beam UV/VIS spectrophotometer (Spectronic Camspec Ltd., Leeds, United Kingdom). All measured parameters were calculated per milligram or gram of protein determined using the bicinchoninic acid assay.

In the assay with Jurkat, `CC(C)(C)OC(=O)n1cc(CNC(=O)Nc2ccc(NC(=O)NCc3cn(C(=O)OC(C)(C)C)c4ccccc34)cc2)c2ccccc21` [Compound 49, N,N′-(1,4-phenylene)bis{N′-[1-(tert-butoxycarbonyl)indol-3-yl]methyl (urea)}] registered an IC50 of 98.8 ± 1.7 µM. Further, the “levels of Atg7” value in the assay with Atg7 is “significantly increased”. Moreover, the SOD in assay [1] (24 h) is on record as 0.408 ± 0.24 μkat/mg Prot; in assay [1] (48 h), 0.526 ± 0.27 μkat/mg Prot; in assay [1] (72 h), 0.523 ± 0.38 μkat/mg Prot.
